A short description of test [1]: Inhibition of Arabidopsis 4-hydroxyphenylpyruvate dioxygenase.
For test [2], the target named is 4-hydroxyphenylpyruvate dioxygenase (Rattus norvegicus, UniProt P32755). In words: Inhibition of rat 4-hydroxyphenylpyruvate dioxygenase.
Test [3] can be described thus: Inhibition of anthranilate synthase.

We go through four molecules from ChEMBL document CHEMBL1137757, “Combinatorial chemistry in the agrosciences” (Bioorg Med Chem, 2009).

The term IC50 denotes the concentration that gives 50% inhibition. A low value points to greater potency in that assay.

Molecules are shown by their SMILES. Some results are limits rather than exact numbers.

Sequence of 4-hydroxyphenylpyruvate dioxygenase (P32755 whole entry): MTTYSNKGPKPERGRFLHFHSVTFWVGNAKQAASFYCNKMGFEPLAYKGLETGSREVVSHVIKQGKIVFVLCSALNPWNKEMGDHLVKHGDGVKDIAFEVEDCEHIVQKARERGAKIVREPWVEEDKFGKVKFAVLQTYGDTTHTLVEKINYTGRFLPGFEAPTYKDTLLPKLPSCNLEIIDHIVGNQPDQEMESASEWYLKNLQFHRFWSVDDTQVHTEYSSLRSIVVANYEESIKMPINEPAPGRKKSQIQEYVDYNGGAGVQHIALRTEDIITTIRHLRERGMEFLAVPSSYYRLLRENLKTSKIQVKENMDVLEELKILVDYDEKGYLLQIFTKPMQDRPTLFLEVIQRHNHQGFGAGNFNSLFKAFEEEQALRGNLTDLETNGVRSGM

Consider `O=C(NCCCCC1C(=O)/C(=C(\O)C2CC2)C(=O)N1Cc1ccc(F)cc1)c1ccc(Cl)nc1` (stereo unspecified), for which the IC50 turned out to be 20 nM in test [1] and 3.9 µM in test [2].
In the same order, the values of `O=C(NCCCCC1C(=O)/C(=C(\O)C2CCC2)C(=O)N1Cc1ccccc1)Nc1cccc(Cl)c1` (stereo unspecified) are 158 nM and ≥ 10 µM.
The molecule `O=C(O)c1cccc(/C(=N/OCCc2ccc(Cl)cc2)c2cccc(C(F)(F)F)c2)c1` registered a concentration for half-maximal inhibition (IC50) in test [3] of 3.2 µM.
Take `O=C(O)COc1ccccc1/C=N/OCc1cc(Cl)ccc1Cl`: the concentration for half-maximal inhibition (IC50) in test [3] was 3.2 µM.
